Like-named read-outs stand apart in the source and are kept apart here.
Experiments:
[1] = biological target: T1, human ERα (Homo sapiens, UniProt P03372); experiment: Fluorescence polarization ER/D22 coactivator-peptide assay, ERα; type: biochemical; settings: for agonistic/antagonistic activity for ERα: fluorescence polarisation, recombinant receptor; for EC50: recombinant human ERα, D22 peptide, 1 h
T1 construct: purchased Panvera (Göttingen, Germany)
T1 sequence (P03372 1-595): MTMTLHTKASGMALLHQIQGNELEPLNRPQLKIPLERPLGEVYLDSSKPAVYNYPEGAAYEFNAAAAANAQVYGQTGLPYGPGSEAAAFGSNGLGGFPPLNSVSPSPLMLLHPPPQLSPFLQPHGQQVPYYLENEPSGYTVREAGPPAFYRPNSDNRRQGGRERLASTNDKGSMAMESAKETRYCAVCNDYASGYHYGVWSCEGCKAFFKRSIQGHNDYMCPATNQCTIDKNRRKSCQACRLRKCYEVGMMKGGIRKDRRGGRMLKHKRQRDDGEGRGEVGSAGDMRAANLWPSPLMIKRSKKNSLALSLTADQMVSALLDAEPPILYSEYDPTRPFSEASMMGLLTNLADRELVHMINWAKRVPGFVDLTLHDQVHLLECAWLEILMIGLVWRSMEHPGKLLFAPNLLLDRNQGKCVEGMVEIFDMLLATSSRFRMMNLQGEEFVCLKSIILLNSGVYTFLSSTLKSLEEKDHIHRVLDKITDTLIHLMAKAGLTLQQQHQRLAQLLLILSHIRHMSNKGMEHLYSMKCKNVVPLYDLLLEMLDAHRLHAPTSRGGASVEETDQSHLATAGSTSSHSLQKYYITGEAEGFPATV
Method: (§1) Binding affinities to ERα and ERβ were determined by the dose dependence binding of the test compounds with purified human Erα and Erβ. All chemicals were obtained from Panvera (Göttingen, Germany). The assay was performed according to the protocols recommended by the manufacturer. […] D22 is a coactivator-like peptide containing an LXXLL motif and flanking sequences that resemble known coactivators. Agonist-bound ER (ERα or ERβ) can recruit D22, resulting in a more significant fraction of bound D22 and a larger polarization value. Antagonist-bound ER has a lower affinity for D22, yielding a more significant fraction of unbound D22 and a lower polarization value. Recombinant human ERα or ERβ were incubated with the tested compounds for one hour. Fluorescence polarization was measured using a Tecan Ultra Evolution multiwell plate reader (Tecan, Crailsheim, Germany) at excitation wavelength 540 nm and emission wavelength 580 nm. […] The EC50 values were derived by logarithmic curve-fitting from binding curves using GraphPad Prism 8.4.3. GraphPad Software, San Diego, California, USA. EC50 was determined from at least three independent experiments.

[2] = system: Ishikawa cells; experiment: Ishikawa cells proliferation (alkaline phosphatase activity); type: cell-based, human; settings: for alkaline phosphatase activity of Ishikawa cells: 10^3–10^4 nM; for alkaline phosphatase activity of Ishikawa cells / alkaline phosphatase activity / proliferation of Ishikawa cells: 72 h; for alkaline phosphatase activity / proliferation of Ishikawa cells: 10–100 nM
Method: The estrogen-stimulated proliferation of Ishikawa cells was performed according to Wober and coworkers with some modifications: Ishikawa cells were seeded at a density of 5 × 10^3 cells/well in 96-well plates in phenol red-free DMEM/F12 containing 10% charcoal dextran-treated FBS. After 72 h, cells were washed with PBS and kept in the same media for the next 24 h. Then, the medium was changed, and cells were incubated with the tested compounds at concentrations ranging from 10^1 to 10^4 nM for 72 h. As a positive control, E2 at a concentration of 1 nM was used. […] The treated cells were grown for 72 h. The estrogenic stimulation was evaluated by alkaline phosphatase activity. After incubation, the cells were washed with PBS, and the plates were frozen at −20 °C until analysis. After thawing, the plates were warmed in a water bath up to 22 °C and incubated with the p-Nitrophenyl Phosphate Liquid Substrate System (Sigma-Aldrich). This ready-to-use, single-solution reagent contains p-nitrophenyl phosphate, buffer and the necessary magnesium cations. Alkaline phosphatase releases p-nitrophenol, measured kinetically at 405 nm using plate reader Biotek Instruments, Elx-800, Winooski, VT, USA).

[3] = system: MCF-7 cells; experiment: MCF-7 cells proliferation (Hoechst 33258 DNA fluorescence); type: cell-based, human; settings: for DNA level / DNA synthesis of MCF-7 cells: 10^3–10^4 nM
Method: The estrogen-stimulated proliferation of MCF-7 cells was performed using Hoechst 33258 DNA staining. […] After 24 h, cells were washed with PBS and kept in the same media for the next 48 h. Then, cells were incubated with tested compounds at concentrations ranging from 10^1 to 10^4 nM for 96 h. E2 at 1 nM and 10 nM was used as a positive control. […] Proliferation was assessed by the fluorometric measurement of DNA. For this purpose, cells were washed with PBS, lysed using EDTA (0.5 mL, […], pH 12.3) at 37 °C for 30 min and neutralized with 10 mM KH2PO4, and then, Hoechst 33258 (1 mg/mL) was added. Excitation at 350 nm and emission at 455 nm was used for fluorescence measurement using Tecan Infinite M Plex microplate reader (Männedorf, Switzerland).

[4] = system: MCF-7 cells transfected with luciferase reporter gene; settings: read-out: EC50 of luciferase expression; cited from earlier work
[5] = system: human endometrial adenocarcinoma cells (Ishikawa); settings: read-out: IC50, suppression of E2-induced expression of alkaline phosphatase; cited from earlier work
[6] = system: human endometrial adenocarcinoma cells (Ishikawa); settings: E2-induced; cited from earlier work
[7] = biological target: T2, human ERβ (Homo sapiens, UniProt Q92731); experiment: Fluorescence polarization ER/D22 coactivator-peptide assay, ERβ; type: biochemical; settings: for EC50: recombinant human ERβ, D22 peptide, 1 h; for agonistic/antagonistic activity for ERβ: fluorescence polarisation, recombinant receptor
T2 construct: purchased Panvera (Göttingen, Germany)
T2 sequence (Q92731 whole entry): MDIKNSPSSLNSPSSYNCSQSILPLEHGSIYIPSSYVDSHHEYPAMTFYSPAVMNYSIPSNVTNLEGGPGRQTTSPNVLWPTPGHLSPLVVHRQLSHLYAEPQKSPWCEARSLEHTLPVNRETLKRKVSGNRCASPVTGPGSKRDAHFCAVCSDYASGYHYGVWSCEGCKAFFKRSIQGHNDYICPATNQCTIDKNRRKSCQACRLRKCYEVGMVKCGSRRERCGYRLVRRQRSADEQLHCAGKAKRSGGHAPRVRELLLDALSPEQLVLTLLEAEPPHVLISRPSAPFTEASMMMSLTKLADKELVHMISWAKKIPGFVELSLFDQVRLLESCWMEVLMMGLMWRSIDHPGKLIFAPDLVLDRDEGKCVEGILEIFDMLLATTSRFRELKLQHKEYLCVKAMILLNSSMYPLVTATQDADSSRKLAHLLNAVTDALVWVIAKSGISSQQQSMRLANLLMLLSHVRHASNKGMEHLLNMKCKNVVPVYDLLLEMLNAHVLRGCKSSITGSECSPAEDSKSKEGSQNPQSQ
Method: as §1

[8] = 100–1000 nM (as in conclusions)

Compound	agonistic/antagonistic activity for ERα [1]	EC50 ([1]; read-out: ERα Agonist EC50) [µM]	alkaline phosphatase activity of Ishikawa cells [2]	proliferation of Ishikawa cells [2, 8]	DNA level / DNA synthesis of MCF-7 cells [3]	proliferation of MCF-7 cells [3, 8]	EC50 [4] [µM]	IC50 [5] [µM]	concentration range suppressing progesterone receptor (PR) mRNA levels [6] [µM]	EC50 ([1]; read-out: ERα antagonist EC50) [µM]	EC50 ([7]; read-out: ERβ antagonist EC50) [µM]	alkaline phosphatase activity / proliferation of Ishikawa cells [2]	agonistic/antagonistic activity for ERβ [7]	EC50 ([7]; read-out: ERβ Agonist EC50) [µM]
Oc1ccc(/C=C/c2cc(O)cc(O)c2)cc1 [resveratrol]	agonistic activity	0.0212 ± 0.0022	stimulated an increase in the level of the assessed markers	stimulated the proliferation	stimulated an increase in the level of the assessed markers	stimulated the proliferation	5 to 10	2.3	5 to 15	–	–	–	–	–
Oc1cc(O)cc(C=Cc2cc(O)c(O)c(O)c2)c1 [Compound M11, 3,3′,4,5,5′-pentahydroxystilbene]	antagonistic activity	–	significantly lower compared with the control	–	significantly lower compared with the control	–	–	–	–	1.01 ± 0.0305	> 5	stimulated the alkaline phosphatase	–	–
Oc1ccc(C=Cc2cc(O)c(O)c(O)c2)cc1 [Compound M8, 3,4,4′,5-tetrahydroxystilbene]	agonistic activity	0.108 ± 0.0102	significantly lower compared with the control	–	increased DNA synthesis	–	–	–	–	–	–	stimulated the alkaline phosphatase	could act as ERβ agonists	0.0081 ± 0.0016
Oc1cc(C=Cc2cc(O)c(O)c(O)c2)cc(O)c1O [Compound M12, 3,3′,4,4′,5,5′-hexahydroxystilbene]	antagonistic activity	–	significantly lower compared with the control	–	–	–	–	–	–	0.11 ± 0.0155	> 5	stimulated the alkaline phosphatase	did not show an antagonistic effect	–

Reference: publication PMC9608462 (Molecules, 2022)
